Assays:
K-562 = test: NCI60 five-dose screen; format: cell-based; conditions: Homo sapiens, K562, K-562, leukemia; for CC50: read-out: LC50 (the source's name)
UACC-257 = test: NCI60 five-dose screen; format: cell-based; conditions: Homo sapiens, UACC-257, melanoma; for CC50: read-out: LC50 (the source's name)
Human CYP19 (aromatase) = biological target: T1, Human CYP19 (aromatase) (Homo sapiens, UniProt P11511); test: Aromatase inhibition assay (DBF fluorometric substrate); format: biochemical; conditions: active defined as IC50 < 12.5 µM
T1 construct: purchased GENTEST, Woburn, MA 456260; host or cells: baculovirus/insect cells
T1 sequence (P11511 1-503): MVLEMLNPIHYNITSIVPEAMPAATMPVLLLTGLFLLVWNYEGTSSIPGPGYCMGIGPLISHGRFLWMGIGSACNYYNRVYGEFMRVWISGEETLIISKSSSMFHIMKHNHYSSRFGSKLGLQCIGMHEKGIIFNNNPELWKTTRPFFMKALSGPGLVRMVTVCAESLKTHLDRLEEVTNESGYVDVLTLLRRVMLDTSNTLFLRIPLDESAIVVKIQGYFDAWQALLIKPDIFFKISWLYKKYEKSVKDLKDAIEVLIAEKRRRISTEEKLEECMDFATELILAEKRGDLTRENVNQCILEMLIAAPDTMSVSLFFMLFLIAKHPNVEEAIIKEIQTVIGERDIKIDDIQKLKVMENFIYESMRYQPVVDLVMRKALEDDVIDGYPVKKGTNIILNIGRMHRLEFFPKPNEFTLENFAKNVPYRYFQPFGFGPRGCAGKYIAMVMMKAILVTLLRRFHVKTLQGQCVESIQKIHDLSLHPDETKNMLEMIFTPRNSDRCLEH
Procedure: Aromatase enzyme was purchased from GENTEST, Woburn, MA01801, USA (Supersom human CYP19+oxidoreductase, baculovirus/insect cell-expressed; Product No. 456260). The aromatase inhibitory activity was performed using Human CYP19 enzymes and DBF as a fluorometric substrate as described by Stresser, et al.[41] with minor modifications. The mixture, containing 100 µL of cofactor/serial dilution buffer was pre-incubated in 37 °C for 10 min. […] After incubation at 37 °C for 30 min, the reaction was stopped by addition of 50 µL of 2.2 M NaOH. Fluorescence signal was monitored using an excitation wavelength of 490 nm and emission wavelength of 530 nm.

HCT-116 = test: NCI60 five-dose screen; format: cell-based; conditions: Homo sapiens, HCT-116, colon cancer; for CC50: read-out: LC50 (the source's name)
786-0 = test: NCI60 five-dose screen; format: cell-based; conditions: Homo sapiens, 786-0, renal cancer; for CC50: read-out: LC50 (the source's name)
SNB-19 = test: NCI60 five-dose screen; format: cell-based; conditions: Homo sapiens, SNB-19, CNS cancer; for CC50: read-out: LC50 (the source's name)
SK-MEL-5 = test: NCI60 five-dose screen; format: cell-based, human; conditions: Homo sapiens; for CC50: SK-MEL-5, SK-MEL-5, melanoma, read-out: LC50 (the source's name); for GI50: SK-MEL-5, melanoma
CAKI-1 = test: NCI60 five-dose screen; format: cell-based; conditions: Homo sapiens, CAKI-1, renal cancer; for CC50: read-out: LC50 (the source's name)
MDA-MB-435 = test: NCI60 five-dose screen; format: cell-based, human; conditions: Homo sapiens; for GI50: MDA-MB-435, melanoma
OVCAR-4 = test: NCI60 five-dose screen; format: cell-based; conditions: Homo sapiens, OVCAR-4, ovarian cancer; for CC50: read-out: LC50 (the source's name)
NCI-H522 = test: NCI60 five-dose screen; format: cell-based; conditions: Homo sapiens, NCI-H522, NSC lung cancer; for CC50: read-out: LC50 (the source's name)
NCI-H226 = test: NCI60 five-dose screen; format: cell-based; conditions: Homo sapiens, NCI-H226, NSC lung cancer; for CC50: read-out: LC50 (the source's name)
HT29 = test: NCI60 five-dose screen; format: cell-based; conditions: Homo sapiens, HT-29, HT29, colon cancer; for CC50: read-out: LC50 (the source's name)
HCC-2998 = test: NCI60 five-dose screen; format: cell-based; conditions: Homo sapiens, HCC-2998, colon cancer; for CC50: read-out: LC50 (the source's name)
SNB-75 = test: NCI60 five-dose screen; format: cell-based; conditions: Homo sapiens, SNB-75, CNS cancer; for CC50: read-out: LC50 (the source's name)
DU-145 = test: NCI60 five-dose screen; format: cell-based; conditions: Homo sapiens, DU-145, prostate cancer; for CC50: read-out: LC50 (the source's name)
LOX IMVI = test: NCI60 five-dose screen; format: cell-based; conditions: Homo sapiens, melanoma; for CC50: read-out: LC50 (the source's name)
ACHN = test: NCI60 five-dose screen; format: cell-based; conditions: Homo sapiens, renal cancer; for CC50: read-out: LC50 (the source's name)
NCI-H460 = test: NCI60 five-dose screen; format: cell-based; conditions: Homo sapiens, NCI-H460, NSC lung cancer; for CC50: read-out: LC50 (the source's name)
OVCAR-8 = test: NCI60 five-dose screen; format: cell-based; conditions: Homo sapiens, OVCAR-8, ovarian cancer; for CC50: read-out: LC50 (the source's name)
CCRF-CEM = test: NCI60 five-dose screen; format: cell-based; conditions: Homo sapiens, leukemia; for CC50: read-out: LC50 (the source's name)
OVCAR-5 = test: NCI60 five-dose screen; format: cell-based; conditions: Homo sapiens, OVCAR-5, ovarian cancer; for CC50: read-out: LC50 (the source's name)
RPMI-8226 = test: NCI60 five-dose screen; format: cell-based; conditions: Homo sapiens, RPMI-8226, leukemia; for CC50: read-out: LC50 (the source's name)

`O=C(N/N=C/c1ccc[nH]1)c1[nH]c2ccc(Br)cc2c1-c1ccccc1` [Derivative 3a, (E)-N′-((1H-Pyrrol-2-yl)methylene)-5-bromo-3-phenyl-1H-indole-2-carbohydrazide] gave a GI50 (K-562) of 0.202 µM, a CC50 (K-562) of over 100 µM and a GI50 (UACC-257) of 0.647 µM. For the same compound, the CC50 (UACC-257) was 47.1 µM, the IC50 (Human CYP19 (aromatase)) was 3.4 ± 0.6 µM and the GI50 (HCT-116) was 0.28 µM. The CC50 (HCT-116) was 32.3 µM, the GI50 (786-0) was 0.791 µM and the CC50 (786-0) was 23.9 µM. The GI50 (SNB-19) was 0.416 µM, the CC50 (SNB-19) was 35 µM and the CC50 (SK-MEL-5) was 15.7 µM. The GI50 (SK-MEL-5) was 0.302 µM, the GI50 (CAKI-1) was 0.257 µM and the CC50 (CAKI-1) was 30.9 µM. For the same compound, the GI50 (MDA-MB-435) was 0.105 µM, the GI50 (OVCAR-4) was 0.814 µM and the CC50 (OVCAR-4) was 33.6 µM. For the same compound, the GI50 (NCI-H522) was 0.045 µM, the CC50 (NCI-H522) was 22 µM and the GI50 (NCI-H226) was 0.323 µM. For the same compound, the CC50 (NCI-H226) was 23.3 µM, the GI50 (HT29) was 0.329 µM and the CC50 (HT29) was 9.31 µM. The GI50 (HCC-2998) was 0.415 µM, the CC50 (HCC-2998) was 19.5 µM and the GI50 (SNB-75) was 0.136 µM. It also gave a CC50 (SNB-75) of 16 µM, a GI50 (DU-145) of 0.429 µM and a CC50 (DU-145) of 33.3 µM. It also gave a GI50 (LOX IMVI) of 0.244 µM, a CC50 (LOX IMVI) of 19 µM and a GI50 (ACHN) of 0.355 µM. For the same compound, the CC50 (ACHN) was 21.2 µM, the GI50 (NCI-H460) was 0.318 µM and the CC50 (NCI-H460) was 12.5 µM. It also gave a GI50 (OVCAR-8) of 0.323 µM, a CC50 (OVCAR-8) of 6.55 µM and a GI50 (CCRF-CEM) of 0.345 µM. The CC50 (CCRF-CEM) was over 100 µM, the GI50 (OVCAR-5) was 0.437 µM and the CC50 (OVCAR-5) was 30.8 µM. The GI50 (RPMI-8226) was 0.337 µM and the CC50 (RPMI-8226) was over 100 µM.
`O=C(N/N=C/c1cc[nH]c1)c1[nH]c2ccc(Br)cc2c1-c1ccccc1` [Derivative 3b, (E)-N′-((1H-Pyrrol-3-yl)methylene)-5-bromo-3-phenyl-1H-indole-2-carbohydrazide] was tested, and the GI50 (K-562) was 0.429 µM, the CC50 (K-562) was 97 µM and the GI50 (UACC-257) was 8.22 µM. It also gave a CC50 (UACC-257) of 47.8 µM, an IC50 (Human CYP19 (aromatase)) of 11 ± 1.3 µM and a GI50 (HCT-116) of 0.991 µM. For the same compound, the CC50 (HCT-116) was over 100 µM, the GI50 (786-0) was 5.46 µM and the CC50 (786-0) was 77.2 µM. It also gave a GI50 (SNB-19) of 2.55 µM, a CC50 (SNB-19) of 39.8 µM and a CC50 (SK-MEL-5) of 14.6 µM. The GI50 (SK-MEL-5) was 1.1 µM, the GI50 (CAKI-1) was 0.776 µM and the CC50 (CAKI-1) was 44.1 µM. For the same compound, the CC50 (MDA-MB-435; MDA-MB-435, MDA-MB-435, melanoma, read-out: LC50 (the source's name)) was 15.8 µM, the GI50 (MDA-MB-435) was 0.463 µM and the GI50 (OVCAR-4) was 4.82 µM. The CC50 (OVCAR-4) was 45.2 µM, the GI50 (NCI-H522) was 0.925 µM and the CC50 (NCI-H522) was 24 µM. It also gave a GI50 (NCI-H226) of 2.52 µM, a CC50 (NCI-H226) of 51.2 µM and a GI50 (HT29) of 0.68 µM. For the same compound, the CC50 (HT29) was 34.5 µM, the GI50 (HCC-2998) was 1.55 µM and the CC50 (HCC-2998) was 32.7 µM. The GI50 (SNB-75) was 0.88 µM, the CC50 (SNB-75) was 32 µM and the GI50 (DU-145) was 1.95 µM. The CC50 (DU-145) was 34.7 µM, the GI50 (LOX IMVI) was 0.916 µM and the CC50 (LOX IMVI) was 38.7 µM. The GI50 (ACHN) was 1.71 µM, the CC50 (ACHN) was 39 µM and the GI50 (NCI-H460) was 0.657 µM. For the same compound, the CC50 (NCI-H460) was 46 µM, the GI50 (OVCAR-8) was 1.21 µM and the CC50 (OVCAR-8) was 38.6 µM. The GI50 (CCRF-CEM) was 0.821 µM, the CC50 (CCRF-CEM) was over 100 µM and the GI50 (OVCAR-5) was 1.74 µM. It also gave a CC50 (OVCAR-5) of 38.5 µM, a GI50 (RPMI-8226) of 1.43 µM and a CC50 (RPMI-8226) of over 100 µM.
